From patent US11613522B2, “Herbicidally active 3-phenylisoxazoline-5-carboxamides of tetrahydro- and dihydrofurancarboxamides” (BAYER AKTIENGESELLSCHAFT, priority 2017, dated 2023)

Columns and labels:
Assay type in all cases: in vivo
[1] = Pre-emergence herbicidal action against harmful plants (summary of the tables); details: 504 h, application rate of 0.08 kg of active substance or less per hectare, read-out: herbicidal action, pre-emergence treatment (very good activity)
Description: (§1) 1. Pre-emergence herbicidal action against harmful plants and crop plant compatibility Seeds of monocotyledonous and dicotyledonous weed plants and crop plants are placed in plastic or wood fiber pots and covered with soil. The compounds of the invention, formulated in the form of wettable powders (WP) or as emulsion concentrates (EC), are then applied onto the surface of the covering soil as aqueous suspension or emulsion with addition of 0.5% additive at a water application rate of 600 l/ha (converted). After the treatment, the pots are placed in a greenhouse and kept under good growth conditions for the trial plants. After about 3 weeks, the effect of the preparations is scored visually in comparison with untreated controls as percentages. For example, 100% activity=the plants have died, 0% activity=like control plants.
As shown by the results, compounds according to the invention such as, for example, the compounds No. I-02 and other compounds from the tables (I-05, I-10, I-11, I-12, I-13, I-14, I-15, I-16, I-17, I-18, I-19, I-20, I-21, I-22, I-23, I-24, I-25, I-26, I-27, I-28, I-29) have, when used for pre-emergence treatment, very good activity (80% to 100% herbicidal action) against harmful plants such as Abutilon theophrasti, Alopecurus myosuroides, Amaranthus retroflexus, Avena fatua, Cyperus esculentus, Echinochloa crus-galli, Hordeum murinum, Lolium rigidum, Pharbitis purpurea, Polygonum convolvulus, Setaria viridis, Stellaria media, Veronica persica and Viola tricolor at an application rate of 0.08 kg of active substance or less per hectare.

Setaria viridis [2] = assay: Pre-emergence herbicidal activity against SETVI; details: dosage 80 g/ha, scored visually after about 3 weeks vs untreated controls
Description: as §1, with “control plants. [table]” for “control plants.”

Hordeum murinum [3] = assay: Pre-emergence herbicidal activity against HORMU; details: dosage 80 g/ha
Description: as §1, with “control plants. [table]” for “control plants.”

Viola tricolor [4] = assay: Pre-emergence herbicidal activity against VIOTR; details: dosage 80 g/ha, scored visually after about 3 weeks vs untreated controls
Description: as §1, with “control plants. [table]” for “control plants.”

Veronica persica [5] = assay: Post-emergence herbicidal activity against VERPE; details: dosage 320 g/ha, rated visually after about 3 weeks
Method: (§2) [table] Seeds of monocotyledonous and dicotyledonous weeds and crop plants are placed in sandy loam in plastic or wood-fiber pots, covered with soil and cultivated in a greenhouse under controlled growth conditions. 2 to 3 weeks after sowing, the test plants are treated at the one-leaf stage. The compounds of the invention, formulated in the form of wettable powders (WP) or as emulsion concentrates (EC), are then sprayed onto the green parts of the plants as aqueous suspension or emulsion with addition of 0.5% additive at a water application rate of 600 l/ha (converted). After the test plants had been kept in the greenhouse under optimum growth conditions for about 3 weeks, the activity of the preparations is rated visually in comparison to untreated controls. For example, 100% activity=the plants have died, 0% activity=like control plants.

Hordeum murinum [6] = assay: Post-emergence herbicidal activity against HORMU; details: dosage 320 g/ha, rated visually after about 3 weeks
Method: as §2

Veronica persica [7] = assay: Pre-emergence herbicidal activity against VERPE; details: dosage 80 g/ha
Description: as §1, with “control plants. [table]” for “control plants.”

Echinochloa crus-galli [8] = assay: Post-emergence herbicidal activity against ECHCG; details: dosage 320 g/ha, rated visually after about 3 weeks
Method: as §2

Abutilon theophrasti = assay: Post-emergence herbicidal activity against ABUTH; details: dosage 320 g/ha, rated visually after about 3 weeks
Method: as §2

Stellaria media [9] = assay: Post-emergence herbicidal activity against STEME; details: dosage 320 g/ha, rated visually after about 3 weeks
Method: as §2

Alopecurus myosuroides [10] = assay: Pre-emergence herbicidal activity against ALOMY; details: dosage 80 g/ha, scored visually after about 3 weeks vs untreated controls
Description: as §1, with “control plants. [table]” for “control plants.”

Polygonum convolvulus [11] = assay: Post-emergence herbicidal activity against POLCO; details: dosage 320 g/ha, rated visually after about 3 weeks
Method: as §2

Amaranthus retroflexus [12] = assay: Pre-emergence herbicidal activity against AMARE; details: dosage 80 g/ha, scored visually after about 3 weeks vs untreated controls
Description: as §1, with “control plants. [table]” for “control plants.”

Lolium rigidum [13] = assay: Pre-emergence herbicidal activity against LOLRI; details: dosage 80 g/ha, scored visually after about 3 weeks vs untreated controls
Description: as §1, with “control plants. [table]” for “control plants.”

Polygonum convolvulus [14] = assay: Pre-emergence herbicidal activity against POLCO; details: dosage 80 g/ha, scored visually after about 3 weeks vs untreated controls
Description: as §1, with “control plants. [table]” for “control plants.”

Echinochloa crus-galli [15] = assay: Pre-emergence herbicidal activity against ECHCG; details: dosage 80 g/ha, scored visually after about 3 weeks vs untreated controls
Description: as §1, with “control plants. [table]” for “control plants.”

Pharbitis purpurea [16] = assay: Post-emergence herbicidal activity against PHBPU; details: dosage 320 g/ha, rated visually after about 3 weeks
Method: as §2

Lolium rigidum [17] = assay: Post-emergence herbicidal activity against LOLRI; details: dosage 320 g/ha, rated visually after about 3 weeks
Method: as §2

Avena fatua [18] = assay: Pre-emergence herbicidal activity against AVEFA; details: dosage 80 g/ha, scored visually after about 3 weeks vs untreated controls
Description: as §1, with “control plants. [table]” for “control plants.”

Viola tricolor [19] = assay: Post-emergence herbicidal activity against VIOTR; details: dosage 320 g/ha, rated visually after about 3 weeks
Method: as §2

Alopecurus myosuroides [20] = assay: Post-emergence herbicidal activity against ALOMY; details: dosage 320 g/ha, rated visually after about 3 weeks
Method: as §2

Setaria viridis [21] = assay: Post-emergence herbicidal activity against SETVI; details: dosage 320 g/ha, rated visually after about 3 weeks
Method: as §2

Stellaria media [22] = assay: Pre-emergence herbicidal activity against STEME; details: dosage 80 g/ha, scored visually after about 3 weeks vs untreated controls
Description: as §1, with “control plants. [table]” for “control plants.”

Avena fatua [23] = assay: Post-emergence herbicidal activity against AVEFA; details: dosage 320 g/ha, rated visually after about 3 weeks
Method: as §2

Amaranthus retroflexus [24] = assay: Post-emergence herbicidal activity against AMARE; details: dosage 320 g/ha, rated visually after about 3 weeks
Method: as §2

Pharbitis purpurea [25] = assay: Pre-emergence herbicidal activity against PHBPU; details: dosage 80 g/ha, scored visually after about 3 weeks vs untreated controls
Description: as §1, with “control plants. [table]” for “control plants.”

C=C[C@]1(C(=O)N[C@@H]2CO[C@H](C(=O)NN(C)C)C2)CC(c2cc(F)cc(F)c2)=NO1 (mixture of isomers) [Example I-15, (5S)-3-(3,5-difluorophenyl)-N-[cis-5-(dimethylaminocarbamoyl)tetrahydrofuran-3-yl]-5-vinyl-4H-isoxazole-5-carboxamide]
pest or weed control at 80 g/ha [1]: 80 to 100% | pest or weed control at 80 g/ha (Setaria viridis [2]; Setaria viridis, 504 h): 100% | pest or weed control at 80 g/ha (Hordeum murinum [3]; Hordeum murinum, 504 h): 90% | pest or weed control at 80 g/ha (Viola tricolor [4]; Viola tricolor, 504 h): 100% | pest or weed control at 320 g/ha (Veronica persica [5]; Veronica persica, 504 h): 80% | pest or weed control at 320 g/ha (Hordeum murinum [6]; Hordeum murinum, 504 h): 90% | pest or weed control at 80 g/ha (Veronica persica [7]; Veronica persica, 504 h): 100% | pest or weed control at 320 g/ha (Echinochloa crus-galli [8]; Echinochloa crus-galli, 504 h): 90% | pest or weed control at 320 g/ha (Abutilon theophrasti; Abutilon theophrasti, 504 h): 80% | pest or weed control at 320 g/ha (Stellaria media [9]; Stellaria media, 504 h): 90% | pest or weed control at 80 g/ha (Alopecurus myosuroides [10]; Alopecurus myosuroides, 504 h): 100% | pest or weed control at 320 g/ha (Polygonum convolvulus [11]; Fallopia convolvulus, 504 h): 90% | pest or weed control at 80 g/ha (Amaranthus retroflexus [12]; Amaranthus retroflexus, 504 h): 100% | pest or weed control at 80 g/ha (Lolium rigidum [13]; Lolium rigidum, 504 h): 100% | pest or weed control at 80 g/ha (Polygonum convolvulus [14]; Fallopia convolvulus, 504 h): 100% | pest or weed control at 80 g/ha (Echinochloa crus-galli [15]; Echinochloa crus-galli, 504 h): 90% | pest or weed control at 320 g/ha (Pharbitis purpurea [16]; Ipomoea purpurea, 504 h): 80% | pest or weed control at 320 g/ha (Lolium rigidum [17]; Lolium rigidum, 504 h): 90% | pest or weed control at 80 g/ha (Avena fatua [18]; Avena fatua, 504 h, read-out: Pre-emergence herbicidal activity in % against AVEVA (AVEFA)): 90% | pest or weed control at 320 g/ha (Viola tricolor [19]; Viola tricolor, 504 h): 80% | pest or weed control at 320 g/ha (Alopecurus myosuroides [20]; Alopecurus myosuroides, 504 h): 100% | pest or weed control at 320 g/ha (Setaria viridis [21]; Setaria viridis, 504 h): 80% | pest or weed control at 80 g/ha (Stellaria media [22]; Stellaria media, 504 h): 100% | pest or weed control at 320 g/ha (Avena fatua [23]; Avena fatua, 504 h): 100%

C=C[C@]1(C(=O)N[C@@H]2CO[C@H](C(=O)NCCC(=O)OC)C2)CC(c2cc(F)cc(F)c2)=NO1 [Example I-20]
Pre-emergence herbicidal activity in % against SETVI (Setaria viridis [2]): 100% | Post-emergence herbicidal activity in % against AMARE (Amaranthus retroflexus [24]): 90% | Pre-emergence herbicidal activity in % against HORMU (Hordeum murinum [3]): 100% | Pre-emergence herbicidal activity in % against VIOTR (Viola tricolor [4]): 100% | Post-emergence herbicidal activity in % against VERPE (Veronica persica [5]): 80% | Post-emergence herbicidal activity in % against HORMU (Hordeum murinum [6]): 100% | Post-emergence herbicidal activity in % against ECHCG (Echinochloa crus-galli [8]): 100% | Post-emergence herbicidal activity in % against ABUTH (Abutilon theophrasti): 80% | Post-emergence herbicidal activity in % against STEME (Stellaria media [9]): 80% | Pre-emergence herbicidal activity in % against ALOMY (Alopecurus myosuroides [10]): 100% | Pre-emergence herbicidal activity in % against PHBPU (Pharbitis purpurea [25]): 80% | Post-emergence herbicidal activity in % against POLCO (Polygonum convolvulus [11]): 80% | Pre-emergence herbicidal activity in % against AMARE (Amaranthus retroflexus [12]): 100% | Pre-emergence herbicidal activity in % against LOLRI (Lolium rigidum [13]): 100% | Pre-emergence herbicidal activity in % against POLCO (Polygonum convolvulus [14]): 100% | Pre-emergence herbicidal activity in % against ECHCG (Echinochloa crus-galli [15]): 100% | Post-emergence herbicidal activity in % against PHBPU (Pharbitis purpurea [16]): 90% | Post-emergence herbicidal activity in % against LOLRI (Lolium rigidum [17]): 100% | Pre-emergence herbicidal activity in % against AVEVA (AVEFA) (Avena fatua [18]): 100% | Post-emergence herbicidal activity in % against VIOTR (Viola tricolor [19]): 80% | Post-emergence herbicidal activity in % against ALOMY (Alopecurus myosuroides [20]): 100% | Post-emergence herbicidal activity in % against SETVI (Setaria viridis [21]): 90% | Pre-emergence herbicidal activity in % against STEME (Stellaria media [22]): 100% | Post-emergence herbicidal activity in % against AVEFA (Avena fatua [23]): 100%

CN(C)C(=O)[C@@H]1C[C@H](NC(=O)[C@@]2(C)CC(c3cc(F)cc(F)c3)=NO2)CO1 [Example I-25]
Pre-emergence herbicidal activity in % against SETVI (Setaria viridis [2]): 100% | Post-emergence herbicidal activity in % against AMARE (Amaranthus retroflexus [24]): 80% | Pre-emergence herbicidal activity in % against VIOTR (Viola tricolor [4]): 100% | Post-emergence herbicidal activity in % against VERPE (Veronica persica [5]): 80% | Post-emergence herbicidal activity in % against HORMU (Hordeum murinum [6]): 90% | Pre-emergence herbicidal activity in % against VERPE (Veronica persica [7]): 90% | Post-emergence herbicidal activity in % against ABUTH (Abutilon theophrasti): 80% | Post-emergence herbicidal activity in % against STEME (Stellaria media [9]): 90% | Pre-emergence herbicidal activity in % against ALOMY (Alopecurus myosuroides [10]): 100% | Pre-emergence herbicidal activity in % against PHBPU (Pharbitis purpurea [25]): 90% | Post-emergence herbicidal activity in % against POLCO (Polygonum convolvulus [11]): 80% | Pre-emergence herbicidal activity in % against AMARE (Amaranthus retroflexus [12]): 100% | Pre-emergence herbicidal activity in % against LOLRI (Lolium rigidum [13]): 100% | Pre-emergence herbicidal activity in % against POLCO (Polygonum convolvulus [14]): 100% | Pre-emergence herbicidal activity in % against ECHCG (Echinochloa crus-galli [15]): 80% | Post-emergence herbicidal activity in % against PHBPU (Pharbitis purpurea [16]): 90% | Post-emergence herbicidal activity in % against LOLRI (Lolium rigidum [17]): 100% | Pre-emergence herbicidal activity in % against AVEVA (AVEFA) (Avena fatua [18]): 90% | Post-emergence herbicidal activity in % against ALOMY (Alopecurus myosuroides [20]): 100% | Post-emergence herbicidal activity in % against SETVI (Setaria viridis [21]): 80% | Pre-emergence herbicidal activity in % against STEME (Stellaria media [22]): 100% | Post-emergence herbicidal activity in % against AVEFA (Avena fatua [23]): 90%
